Results: PubChem BioAssay (NCI)
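How tested: cells in 96-well plates exposed to compound for 48 hours at five concentrations. Definition used: TGI = concentration required for complete inhibition of growth.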

Tests used:
Assay in all cases: NCI anticancer screen, dose series, 48 h
[1] = system: DU-145 prostate
[2] = system: NCI/ADR-RES ovarian
[3] = system: RPMI-8226 leukemia
[4] = system: SF-295 CNS
[5] = system: IGROV1 ovarian
[6] = system: OVCAR-3 ovarian
[7] = system: SK-MEL-5 melanoma
[8] = system: NCI-H23 lung
[9] = system: HOP-92 NSCLC
[10] = system: OVCAR-5 ovarian
[11] = system: CAKI-1 renal
[12] = system: SF-268 CNS
[13] = system: HCT-116 colon
[14] = system: OVCAR-4 ovarian
[15] = system: K-562 leukemia
[16] = system: UACC-257 melanoma
[17] = system: CCRF-CEM leukemia
[18] = system: SK-MEL-28 melanoma
[19] = system: SR leukemia
[20] = system: NCI-H226 lung
[21] = system: M14 melanoma
[22] = system: SNB-19 CNS
[23] = system: A549 NSCLC
[24] = system: HOP-62 NSCLC
[25] = system: U251 CNS
[26] = system: HCC-2998 colon
[27] = system: MDA-MB-231 breast
[28] = system: OVCAR-8 ovarian
[29] = system: SK-OV-3 ovarian
[30] = system: KM12 colon
[31] = system: NCI-H522 lung
[32] = system: HCT-15 colon
[33] = system: UACC-62 melanoma
[34] = system: UO-31 renal
[35] = system: MALME-3M melanoma
[36] = system: BT-549 breast
[37] = system: RXF 393 renal
[38] = system: SF-539 CNS
[39] = system: ACHN renal
[40] = system: PC-3 prostate
[41] = system: LOX IMVI melanoma
[42] = system: COLO 205 colon
[43] = system: SN12C renal
[44] = system: SNB-75 CNS
[45] = system: MOLT-4 leukemia
[46] = system: HS 578T breast
[47] = system: 786-0 renal
[48] = system: TK-10 renal
[49] = system: T-47D breast
[50] = system: MDA-MB-435
[51] = system: SW-620 colon
[52] = system: EKVX NSCLC
[53] = system: SK-MEL-2 melanoma
[54] = system: MDA-N
[55] = system: A498 renal
[56] = system: HL-60(TB) leukemia
[57] = system: NCI-H460 lung
[58] = system: MCF7 breast
[59] = system: HT29 colon

SMILES: CN(CCCCN1CCCC1)CCCCN(C)C(=O)Cc1ccc(Cl)c(Cl)c1
- TGI [1]: 72 µM
- TGI [2]: > 100 µM
- TGI [3]: 23.9 µM
- TGI [4]: 38 µM
- TGI [5]: 37 µM
- TGI [6]: 44.5 µM
- TGI [7]: 19.9 µM
- TGI [8]: 37.3 µM
- TGI [9]: 17.5 µM
- TGI [10]: 41.2 µM
- TGI [11]: 39.2 µM
- TGI [12]: 39.8 µM
- TGI [13]: 29.3 µM
- TGI [14]: 33.9 µM
- TGI [15]: 10.5 µM
- TGI [16]: 6.22 µM
- TGI [17]: 20.7 µM
- TGI [18]: 3.88 µM
- TGI [19]: 14.3 µM
- TGI [20]: 41.8 µM
- TGI [21]: 35.7 µM
- TGI [22]: 36.8 µM
- TGI [23]: 31.2 µM
- TGI [24]: 34.8 µM
- TGI [25]: 27.8 µM
- TGI [26]: 18.5 µM
- TGI [27]: 23.5 µM
- TGI [28]: 64.9 µM
- TGI [29]: 47.2 µM
- TGI [30]: 26.1 µM
- TGI [31]: 27.7 µM
- TGI [32]: 50 µM
- TGI [33]: 12.3 µM
- TGI [34]: 3.31 µM
- TGI [35]: 34.4 µM
- TGI [36]: 36.7 µM
- TGI [37]: 25.9 µM
- TGI [38]: 23.3 µM
- TGI [39]: 57.1 µM
- TGI [40]: 36.4 µM
- TGI [41]: 25.2 µM
- TGI [42]: 27.4 µM
- TGI [43]: 36.8 µM
- TGI [44]: 32.8 µM
- TGI [45]: 22.1 µM
- TGI [46]: 54.5 µM
- TGI [47]: 25.7 µM
- TGI [48]: 32.6 µM
- TGI [49]: 40.7 µM
- TGI [50]: 5.3 µM
- TGI [51]: 38.4 µM
- TGI [52]: 37 µM
- TGI [53]: 19.7 µM
- TGI [54]: 12.2 µM
- TGI [55]: 32.4 µM
- TGI [56]: 36.1 µM
- TGI [57]: 30.6 µM
- TGI [58]: 28.3 µM
- TGI [59]: 15.4 µM

SMILES: COc1ccc2c(c1)CCC(CN1CCN(CCOC(c3ccc(F)cc3)c3ccc(F)cc3)CC1)C2O (configuration not stated)
- TGI [1]: 34.8 µM
- TGI [2]: 25.4 µM
- TGI [3]: 35.4 µM
- TGI [4]: 34.5 µM
- TGI [5]: 28.4 µM
- TGI [6]: 32.5 µM
- TGI [7]: 20.1 µM
- TGI [8]: 28.1 µM
- TGI [9]: 26.7 µM
- TGI [10]: 28.6 µM
- TGI [11]: 32 µM
- TGI [12]: 27 µM
- TGI [13]: 23.8 µM
- TGI [14]: 32.9 µM
- TGI [15]: 45 µM
- TGI [16]: 28.1 µM
- TGI [17]: 48.3 µM
- TGI [18]: 30 µM
- TGI [19]: > 100 µM
- TGI [20]: 39.8 µM
- TGI [21]: 25.5 µM
- TGI [22]: 31.5 µM
- TGI [23]: 32.7 µM
- TGI [24]: 34.5 µM
- TGI [25]: 26.1 µM
- TGI [26]: 9.33 µM
- TGI [27]: 27.4 µM
- TGI [28]: 27.4 µM
- TGI [29]: 31.5 µM
- TGI [30]: 63.2 µM
- TGI [31]: 28.6 µM
- TGI [32]: 22.3 µM
- TGI [33]: 24.2 µM
- TGI [35]: 28 µM
- TGI [36]: 27.5 µM
- TGI [37]: 26.3 µM
- TGI [38]: 51.6 µM
- TGI [39]: 19.8 µM
- TGI [40]: 24 µM
- TGI [41]: 29.8 µM
- TGI [42]: 20.2 µM
- TGI [43]: 34 µM
- TGI [44]: 32.9 µM
- TGI [45]: 36.2 µM
- TGI [46]: 38.7 µM
- TGI [47]: 25.2 µM
- TGI [48]: 29.7 µM
- TGI [49]: 39 µM
- TGI [50]: 34.6 µM
- TGI [51]: > 100 µM
- TGI [52]: 25.5 µM
- TGI [53]: 30.8 µM
- TGI [54]: 29.7 µM
- TGI [55]: 19.9 µM
- TGI [56]: 14.6 µM
- TGI [57]: 44.9 µM
- TGI [58]: 39.7 µM
- TGI [59]: 18.4 µM
